Activity calls are given as the source filed them. No cut-off for these calls is given here.
What was measured:
[1] = biological target: T1, NADPH--cytochrome P450 reductase (Homo sapiens, UniProt P16435); assay: Substrate activity at recombinant human CPR expressed in baculovirus infected insect cells assessed as compound reduction rate by measuring NADPH consumption per umol of enzyme preincubated for 3 mins followed by NADPH addition measured for 5 mins at 2 sec time interval by UV-Visible spectroscopic method; assay type: ADME
T1 sequence (P16435 whole entry): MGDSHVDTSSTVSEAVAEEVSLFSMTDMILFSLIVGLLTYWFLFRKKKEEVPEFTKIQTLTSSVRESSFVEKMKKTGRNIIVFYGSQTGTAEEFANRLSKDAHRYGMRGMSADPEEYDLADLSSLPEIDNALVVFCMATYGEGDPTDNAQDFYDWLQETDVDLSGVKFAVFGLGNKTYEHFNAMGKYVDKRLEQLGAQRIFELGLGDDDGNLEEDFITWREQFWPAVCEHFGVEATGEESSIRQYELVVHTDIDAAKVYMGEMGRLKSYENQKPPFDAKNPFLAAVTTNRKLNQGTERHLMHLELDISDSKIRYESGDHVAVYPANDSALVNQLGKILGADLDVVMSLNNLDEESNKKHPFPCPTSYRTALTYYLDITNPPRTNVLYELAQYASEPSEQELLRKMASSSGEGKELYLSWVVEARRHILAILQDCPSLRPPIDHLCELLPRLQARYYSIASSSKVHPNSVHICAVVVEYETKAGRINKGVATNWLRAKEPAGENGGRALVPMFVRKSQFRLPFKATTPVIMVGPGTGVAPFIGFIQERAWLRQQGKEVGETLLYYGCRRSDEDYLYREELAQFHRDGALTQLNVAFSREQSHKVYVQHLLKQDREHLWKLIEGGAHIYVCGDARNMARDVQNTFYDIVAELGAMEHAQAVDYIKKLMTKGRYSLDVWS

[2] = organism: Homo sapiens; assay: Selectivity ratio of compound reduction rate catalyzed by recombinant human NQO1 expressed in Escherichia coli to compound reduction rate catalyzed by recombinant human CPR expressed in baculovirus infected insect cells
[3] = Electrochemical behavior of the compound assessed as electrochemical redox potential with reference to ferrocene at 1 mM using Ag/AgCl reference electrode measured up to -2 V at potential sweep rates of 50 mV/s by cyclic voltammetry
[4] = Selectivity ratio of IC50 for substrate activity at CPR in human L02 cells assessed as cell growth inhibition to IC50 for substrate activity at NQO1 in human A549 cells assessed as cell growth inhibition
[5] = system: A549; assay: Antitumor activity against human A549 cells xenografted in athymic nude mouse assessed as tumor growth inhibition at 30 mg/kg, iv administered every other day for 3 weeks measured twice per week during compound dosing relative to control; assay type: functional; conditions: 504 h, read-out: TGI
[6] = biological target: T1, NADPH--cytochrome P450 reductase; assay: Substrate activity at CPR in human L02 cells assessed as CPR-mediated one-electron reduction of compound by measuring cell growth inhibition at 20 to 100 uM treated for >8 hrs measured after 72 hrs by MTT assay; assay type: cell-based
[7] = system: A549; assay: Antitumor activity against human A549 cells xenografted in athymic nude mouse assessed as tumor growth inhibition at 15 mg/kg, iv administered every other day for 3 weeks measured twice per week during compound dosing; assay type: functional, organism-based
[8] = system: Mus musculus; assay: Toxicity in athymic nude mouse xenografted with human A549 cells assessed as change in body weight at 15 to 30 mg/kg, iv administered every other day for 3 weeks measured twice per week during compound dosing; assay type: organism-based; conditions: in vivo, 504 h
[9] = system: Mus musculus; assay: Toxicity in athymic nude mouse xenografted with human A549 cells assessed as change in body weight at 30 mg/kg, iv administered every other day for 3 weeks measured twice per week during compound dosing; assay type: organism-based; conditions: in vivo, 504 h
[10] = system: A549; assay: Cytotoxicity against NQO1 inhibitor dicoumarol pretreated human A549 cells assessed as cell growth inhibition treated for 24 hrs measured after 72 hrs by MTT assay; assay type: functional, cell-based
[11] = system: NCI-H596; assay: Cytotoxicity against NQO1-deficient human NCI-H596 cells assessed as cell growth inhibition treated for 24 hrs measured after 72 hrs by MTT assay; assay type: functional, cell-based

SMILES: CC1(C)CCC2=C(O1)C(=O)c1ccccc1C2=O [ALPHA-LAPACHONE]
- Activity [1]: 1010 µmol/min
- Selectivity ratio [2]: 0.72
- Activity [3]: -1.22 V

SMILES: CCc1coc2c1C(=O)C(=O)c1cc(C)c(C)cc1-2
- Activity [1]: 818 µmol/min

SMILES: CCc1coc2c1C(=O)C(=O)c1cc(C)ccc1-2
- Ratio IC50 [4]: 8.06
- Activity [1]: 796 µmol/min
- Selectivity ratio [2]: 1.63

SMILES: CC1(C)C=CC2=C(O1)C(=O)c1ccccc1C2=O [DEHYDRO-ALPHA-LAPACHONE]
- Activity [1]: 852 µmol/min
- Selectivity ratio [2]: 0.91
- Activity [3]: -1.22 V

SMILES: Cc1ccc2c(c1)C(=O)C(=O)c1c(C)coc1-2
- Ratio IC50 [4]: 2.59
- Activity [1]: 891 µmol/min
- Selectivity ratio [2]: 1.82
- Activity [3]: -1.04 V

SMILES: Cc1coc2c1C(=O)C(=O)c1c(C)ccc(C)c1-2
- Ratio IC50 [4]: 5.86
- Activity [1]: 672 µmol/min
- Selectivity ratio [2]: 1.38
- Activity [3]: -1.07 V

SMILES: Cc1coc2c1C(=O)C(=O)c1ccccc1-2
- Activity [1]: 1201 µmol/min
- Selectivity ratio [2]: 0.63
- Activity [3]: -1.03 V

SMILES: CC1CC2=C(O1)c1ccccc1C(=O)C2=O (configuration not stated)
- Activity [1]: 905 µmol/min
- Selectivity ratio [2]: 0.71

SMILES: COc1ccc2c(c1)C1=C(C(=O)C2=O)C(C)(C)C(C)O1 (configuration not stated)
- Activity [1]: 812 µmol/min
- Activity [3]: -1.13 V

SMILES: Cc1ccc2c(c1)-c1occ(C)c1C(=O)C2=O
- Ratio IC50 [4]: 1.54
- Activity [1]: 835 µmol/min
- Selectivity ratio [2]: 1.25
- Activity [3]: -1.05 V

SMILES: CC1OC2=C(C(=O)C(=O)c3ccccc32)C1C (configuration not stated)
- Activity [1]: 659 µmol/min
- Selectivity ratio [2]: 1.1

SMILES: Cc1cc(=O)n(C)c2c1C(=O)C1=C(C=CC(C)(C)O1)C2=O
- Activity [1]: 1422 µmol/min
- Selectivity ratio [2]: 0.81
- Activity [3]: -0.9 V

SMILES: O=C1C(=O)c2ccoc2-c2ccccc21
- Activity [1]: 1221 µmol/min
- Selectivity ratio [2]: 1.18
- Activity [3]: -0.98 V

SMILES: COc1ccc2c(c1)C(=O)C(=O)C1=C2OC(C)C1(C)C (configuration not stated)
- Activity [1]: 782 µmol/min
- Activity [3]: -1.09 V

SMILES: CC1OC2=C(C(=O)C(=O)c3ccccc32)C1(C)C (configuration not stated)
- Activity [1]: 1437 µmol/min
- Selectivity ratio [2]: 0.7
- Activity [3]: -1.01 V

SMILES: CCc1coc2c1C(=O)C(=O)c1ccc(C)cc1-2
- Activity [1]: 1014 µmol/min
- Selectivity ratio [2]: 1.17

SMILES: Cc1cc2c(cc1C)-c1occc1C(=O)C2=O
- Activity [1]: 400 µmol/min

SMILES: CC1OC2=C(C(=O)c3ccccc3C2=O)C1(C)C (stereo not drawn) [ALPHA-DUNNIONE]
- Activity [1]: 1011 µmol/min
- Selectivity ratio [2]: 0.72
- Activity [3]: -1.19 V

SMILES: CC1(C)CCC2=C(O1)c1ccccc1C(=O)C2=O [LAPACHONE]
- inhibition in vivo at 30 mg/kg [5]: 70.7%
- growth inhibition (GI) [6]: Active
- Activity [1]: 923 µmol/min
- Activity [3]: -1.02 V

SMILES: CCc1coc2c1C(=O)C(=O)c1ccccc1-2
- Activity [1]: 1382 µmol/min
- Selectivity ratio [2]: 0.54

SMILES: COc1cccc2c1C1=C(C(=O)C2=O)C(C)(C)C(C)O1 (configuration not stated)
- Activity [1]: 764 µmol/min
- Activity [3]: -1.1 V

SMILES: Cc1cc2c(cc1C)-c1occ(C)c1C(=O)C2=O
- TGI [7]: Active
- inhibition in vivo at 30 mg/kg [5]: 67.5%
- Activity [8]: Non-Toxic
- Activity [9]: Non-Toxic
- IC50 [10]: 21 µM
- IC50 [11]: 35 µM
- Ratio IC50 [4]: 10.6
- Activity [1]: 142 µmol/min
- Activity [3]: -1.09 V

SMILES: CC1(C)CC2=C(O1)c1ccccc1C(=O)C2=O [NOR-BETA-LAPACHONE]
- Activity [1]: 1427 µmol/min
- Selectivity ratio [2]: 0.52
